Source: PMC6272127, “Synthesis, Antiproliferative Activity and Molecular Properties Predictions of Galloyl Derivatives” (Molecules, 2015)
≈ marks a conversion by molar mass, not a printed value. Like-named read-outs stand apart in the source and are kept apart here.

Experiments:
[1] = system: NCI-ADR/RES (breast expressing the multiple drug resistance phenotype); test: cells; format: cell-based; settings: for GI50 / TGI: NCI/ADR-RES; for GI50: SRB
Procedure: (§1) The experiments were performed in triplicate.

[2] = system: NCI-H460 (lung, non-small cells); test: cells; format: cell-based; settings: for GI50: NCI-H460, 48 h, SRB; for TGI: NCI-H460, total growth inhibition, 48 h
Procedure: as §1

[3] = system: 786-0 (renal); test: cells; format: cell-based; settings: for GI50: SRB; for TGI: 786-0, total growth inhibition, 48 h
Procedure: as §1

[4] = system: K-562 (leukemia); test: cells; format: cell-based; settings: for GI50: K-562, 48 h, SRB
Procedure: as §1

[5] = system: PC-3 (prostate); test: cells; format: cell-based; settings: for GI50: PC-3, 48 h, SRB; for TGI: PC-3, total growth inhibition
Procedure: as §1

[6] = system: U251 (glioma, CNS); test: cells; settings: for TGI: U251, total growth inhibition, 48 h
Procedure: The GI50 values (growth inhibitory activity) (Table 1) refer to the drug concentration that produces a 50% reduction of cellular growth compared with the untreated control cells. The TGI (cytostatic activity) and LC50 (cytotoxic activity) values (Table 2) refer to the drug concentration required for total growth inhibition and killing 50% of the cells, respectively.
The synthesized compounds were assessed in the following ten human tumor cell lines from various tissues kindly provide by the National Cancer Institute (Frederick, MD, USA): U251 (glioma, CNS), MCF-7 (breast), NCI-ADR/RES (breast expressing the multiple drug resistance phenotype), 786-0 (renal), NCI-H460 (lung, non-small cells), PC-3 (prostate), OVCAR-3 (ovarian), HT-29 (colon), K-562 (leukemia) and HaCaT (keratinocytes). Stock cultures were grown in media containing 5 mL of RPMI 1640 (Gibco BRL) supplemented with 5% fetal bovine serum. Gentamicin ([…]) was added to the experimental cultures. Cells in 96-well plates (100 µL cells/well) were exposed to sample concentrations in DMSO/RPMI (0.25, 2.5, 25, and 250 µg/mL) at 37 °C and 5% CO2 for 48 h. […] Next, cells were fixed with 50% trichloroacetic acid, and cell proliferation was determined by spectrophotometric quantification (540 nm) of cellular protein content employing the sulforhodamine B assay. Doxorubicin (0.025–25 µg/mL) was used as a positive control. Three measurements were obtained: first at time point zero (T0, at the beginning of incubation) and then 48 h post-incubation for both the compound-free (C) and tested (T) cells. Cell proliferation was determined using the equation 100 × [(T − T0)/C − T0]. A cytostatic effect was observed when T ≥ T0, while a cytocidal effect occurred when T < T0. The experiments were performed in triplicate.

[7] = system: ten human tumor cell lines; test: Anticancer assay in vitro (sulforhodamine B), statements over the panel of cell lines; format: cell-based
Procedure: as §1

[8] = system: MCF-7 (breast); test: Anticancer assay in vitro (sulforhodamine B), MCF-7; format: cell-based; settings: for GI50: MCF-7, 48 h, SRB
Procedure: as §1

[9] = system: OVCAR-3 (ovarian); test: Anticancer assay in vitro (sulforhodamine B), OVCAR-3; format: cell-based; settings: for GI50: OVCAR-3, 48 h, SRB; for TGI: OVCAR-3, total growth inhibition, 48 h
Procedure: as §1

[10] = system: HaCaT (keratinocytes); test: Anticancer assay in vitro (sulforhodamine B), HaCaT; format: cell-based; settings: 48 h; for GI50: SRB; for TGI: total growth inhibition
Procedure: as §1

[11] = system: HT-29 (colon); test: Anticancer assay in vitro (sulforhodamine B), HT-29; format: cell-based; settings: for GI50: HT-29, 48 h, SRB; for TGI: HT-29, total growth inhibition, 48 h
Procedure: as §1

[12] = K-562, total growth inhibition, 48 h
[13] = MCF-7, total growth inhibition, 48 h

COc1ccc(/C=N/NC(=O)c2cc(O)c(O)c(O)c2)cc1 [Compound 7, N'-(4-Methoxybenzylidene)galloyl hydrazide]
GI50 ([1]; Homo sapiens, 48 h): 11.3 µM | TGI ([1]; total growth inhibition, 48 h): 66.56 µg/mL | GI50 ([2]; Homo sapiens): 41.1 µM | GI50 ([3]; Homo sapiens, 786-0, 48 h): 18.9 µM | GI50 ([4]; Homo sapiens, K562): 8.93 µM | TGI [4, 12]: 41.76 µg/mL | GI50 ([5]; Homo sapiens): 19.6 µM | GI50 ([6]; Homo sapiens, U-251, 48 h): 9.14 µM | TGI [6]: 64.22 µg/mL (≈ 212 µM) | cytotoxic efficacy ([7]; OVCAR-3 and K-562 cell lines): did not demonstrate cytotoxic efficacy | GI50 ([8]; Homo sapiens, MCF7): 15.7 µM | GI50 ([9]; Homo sapiens): 5.98 µM | GI50 ([10]; Homo sapiens): 18.1 µM | GI50 ([11]; Homo sapiens): 25.1 µM

O=C(N/N=C/c1ccc(O)cc1)c1cc(O)c(O)c(O)c1 [Compound 8, N'-(4-Hydroxybenzylidene)galloyl hydrazide]
GI50 ([2]; Homo sapiens): 9.38 µM | GI50 ([3]; Homo sapiens, 786-0, 48 h): 26.8 µM | GI50 ([4]; Homo sapiens, K562): 9.17 µM | GI50 ([6]; Homo sapiens, U-251, 48 h): 6.6 µM | TGI [6]: 26.07 µg/mL (≈ 90.4 µM) | GI50 ([9]; Homo sapiens): 1.35 µM | GI50 ([10]; Homo sapiens): 8.72 µM

COc1cccc2c1C(=O)c1c(O)c3c(c(O)c1C2=O)C[C@@](O)(C(=O)CO)C[C@@H]3O[C@H]1C[C@H](N)[C@H](O)[C@H](C)O1 [Dox, Doxorubicin, reference compound]
GI50 ([1]; Homo sapiens, 48 h): 0.2 µM | TGI ([1]; total growth inhibition, 48 h): 22.42 µg/mL | GI50 ([2]; Homo sapiens): 0.01 µM | TGI [2]: 3.73 µg/mL (≈ 6.86 µM) | TGI [3]: 0.51 µg/mL (≈ 0.938 µM) | CC50 ([3]; Homo sapiens, 786-0, 48 h, read-out: LC50): 17.8 µg/mL (≈ 32.8 µM) | GI50 ([3]; Homo sapiens, 786-0, 48 h): 0.04 µM | CC50 ([4]; Homo sapiens, K562, 48 h, read-out: LC50): 20.1 µg/mL | GI50 ([4]; Homo sapiens, K562): 0.03 µM | TGI [4, 12]: 2.60 µg/mL | CC50 ([5]; Homo sapiens, 48 h, read-out: LC50): 7.95 µg/mL (≈ 14.6 µM) | GI50 ([5]; Homo sapiens): 0.18 µM | TGI ([5]; 48 h): 1.03 µg/mL (≈ 1.9 µM) | GI50 ([6]; Homo sapiens, U-251, 48 h): 0.02 µM | TGI [6]: 2.68 µg/mL (≈ 4.93 µM) | GI50 ([8]; Homo sapiens, MCF7): 0.01 µM | TGI [8, 13]: 2.52 µg/mL | GI50 ([9]; Homo sapiens): 0.02 µM | TGI [9]: 1.47 µg/mL (≈ 2.7 µM) | GI50 ([10]; Homo sapiens): 0.01 µM | TGI [10]: 0.77 µg/mL (≈ 1.42 µM) | TGI [11]: 26.03 µg/mL (≈ 47.9 µM) | GI50 ([11]; Homo sapiens): 0.09 µM

Galloyl-2-methylthio-1,3,4-oxadiazole [Compound 10]
CC50 [1]: 19.7 µM | LC50 [1]: (19.65) µg/mL | TGI [1]: 2.33 µM | GI50 ([1]; 48 h): 0.17 µM | TGI ([1]; total growth inhibition, 48 h): 2.33 µg/mL | LC50 [2]: (65.78) µg/mL | GI50 [2]: 9.44 µM | TGI [2]: 29.52 µg/mL | GI50 ([3]; 786-0, 48 h): 9.2 µM | TGI [3]: 29.40 µg/mL | CC50 [4]: 20.2 µM | LC50 [4]: (20.20) µg/mL | GI50 [4]: 0.6 µM | TGI ([4]; K-562, as printed in the text): 3.70 µM | TGI [4, 12]: 3.70 µg/mL | LC50 [5]: (69.30) µg/mL | GI50 [5]: 7.43 µM | TGI ([5]; 48 h): 28.45 µg/mL | LC50 [6]: (30.43) µg/mL | GI50 ([6]; U251, 48 h, SRB): 5.2 µM | TGI [6]: 16.40 µg/mL | CC50 [8]: 20.2 µM | LC50 [8]: (20.24) µg/mL | GI50 [8]: 0.34 µM | TGI ([8]; MCF-7, as printed in the text): 3.20 µM | TGI [8, 13]: 3.20 µg/mL | CC50 [9]: 17.3 µM | LC50 [9]: (17.34) µg/mL | TGI [9]: 2.38 µg/mL | GI50 [10]: 2.5 µM | TGI [10]: 18.00 µg/mL | LC50 [11]: (60.32) µg/mL | GI50 [11]: 2.77 µM | TGI [11]: 17.66 µg/mL

Galloyl-2-thioxo-1,3,4-oxadiazole [Compound 9]
GI50 ([1]; 48 h): 2.83 µM | TGI ([1]; total growth inhibition, 48 h): 15.86 µg/mL | LC50 [2]: (42.67) µg/mL | GI50 [2]: 8.77 µM | TGI [2]: 19.43 µg/mL | GI50 ([3]; 786-0, 48 h): 8.9 µM | TGI [3]: 24.68 µg/mL | LC50 [4]: (58.99) µg/mL | GI50 [4]: 1.72 µM | TGI [4, 12]: 11.35 µg/mL | LC50 [5]: (56.99) µg/mL | GI50 [5]: 6.05 µM | TGI ([5]; 48 h): 18.09 µg/mL | LC50 [6]: (41.26) µg/mL | GI50 ([6]; U251, 48 h, SRB): 4.2 µM | TGI [6]: 14.58 µg/mL | GI50 ([7]; bound or range over all (for 4: nine) human tumor cell lines, read-out: GI50 values over the cell lines tested): < 8.9 µM | GI50 [8]: 1.08 µM | TGI [8, 13]: 5.06 µg/mL | LC50 [9]: (58.99) µg/mL | GI50 [9]: 0.89 µM | TGI [9]: 13.62 µg/mL | GI50 [10]: 2.25 µM | TGI [10]: 16.53 µg/mL | LC50 [11]: (58.99) µg/mL | GI50 [11]: 2.61 µM | TGI [11]: 13.74 µg/mL
